Measured values: patent publication US9403756B2, “N-phenyl anthranilic acid derivatives and uses thereof” (Ramot at Tel-Aviv University Ltd., priority 2007, dated 2016)

Experiments:
[1] = test system: primary hippocampal neurons; assay: Spontaneous and miniature EPSCs/IPSCs in primary hippocampal neurons, voltage-clamp; format: cell-based, rat; conditions: for effect on amplitude of miniature EPSCs and IPSCs: NH29 at 25 μM, data not shown
Procedure: For hippocampal neuronal cultures, Sprague-Dawley rat embryos (E18) were removed by caesarian section and their hippocampi were dissected out. The tissue was digested with papain for 20 min, triturated to a single-cell suspension, and plated at a density of 40,000 cells per ml on a substrate of bovine collagen type IV and 100 μg/ml poly-L-lysine in 13 mm diameter glass coverslips of a 24-multiwell plate. The culture medium consisted of Modified Eagle's Medium containing 5% horse serum (Biological Industries, Beit HaEmek, Israel), B-27 neuronal supplement (Invitrogen, Carlsbad, Calif.), 100 U/ml penicillin, 100 μg/ml streptomycin, and 2 mM glutamine. D-glucose was supplemented to a final concentration of 6 g/l. Cytosine-1-D-arabinofuranoside (5 μM) was added after 5 days to arrest glial cell proliferation.
For electrophysiological recordings hippocampal neurons were used at 10-14 days in culture. All cultures were maintained at 37° C. in humidified air containing 5% CO2.
Spontaneous excitatory postsynaptic currents (EPSCs) were recorded in the voltage-clamp configuration of the whole-cell patch-clamp technique at a holding potential of −70 mV as previously described; the extracellular solution contained (in mM) 160 NaCl, 2.5 KCl, 10 HEPES, 10 glucose, 2 CaCl2; pH 7.3 (325 mOsm), to which 30 μM picrotoxin and 10 μM bicuculline methyl iodide were added. The intracellular solution consisted (in mM) of 130 K-gluconate, 10 KCl, 1.1 EGTA, 10 HEPES, 1 MgCl2, 2 Na2ATP, 0.1 CaCl2 and 5 QX314Br to block Na^+ currents; pH 7.2 (315 mOsm).
Spontaneous inhibitory postsynaptic currents (IPSCs) were recorded at a holding potential of −70 mV; the extracellular solution contained (in mM) 160 NaCl, 2.5 KCl, 10 HEPES, 10 glucose, 2 CaCl2; pH 7.3 (325 mOsm), to which 10 μM NBQX and 10 μM AP-5 were added. The intracellular solution consisted (in mM) of 144 CsCl, 10 HEPES, 1.1 EGTA, 0.1 CaCl2, 5 MgCl2, 2 Na2ATP, 5 QX314 Br; pH 7.3 (315 mOsm).
Data analysis was performed using the Clampfit program (pClamp 9.2, Molecular Devices), Microsoft Excel (Microsoft) and Prism 4.0 (GraphPad). Chord conductance (G) was calculated by using the following equation: G=I/(V−Vrev) where I corresponds to the current amplitude measured at the end of the pulse and Vrev, the calculated reversal potential. G was estimated at various test voltages V and then, normalized to a maximal conductance value, Gmax. Activation curves were fitted by one Boltzmann distribution: G/Gmax=1/{1+exp[(V50−V)/s]} where V50 is the voltage at which the current is half-activated and s is the slope factor. All data were expressed as mean±SEM. Statistically significant differences were assessed by Student's t-test. Analysis of sEPSCs and sIPSCs was done using the Clampfit program (pClamp 9.2, Molecular Devices) and included evaluation of the individual events as well as the average event amplitude and the integral of the event (total charge transfer).
Because of their slow activation and their lack of inactivation, M-channels could modulate neuronal activity during repetitive spike discharge and tune neurotransmitter release. FIG. 6 illustrates the effect of NH25 on synaptic transmission and transmitter release. Spontaneous excitatory and inhibitory post-synaptic currents (sEPSCs and sIPSCs) were recorded from dense cultures of primary hippocampal neurons, using the voltage-clamp configuration of the whole-cell patch-clamp technique.

COX = assay: Anti-COX activity in cell culture, CT26 and D122 cell lines (results in words); format: cell-based, mouse; conditions: COX-dependent synthesis of PGE2
Procedure: Mouse colon adenocarcinoma CT26 and mouse lewis lung carcinoma D122 cells were grown in DMEM (D122) or RPMI (CT26) supplemented with 10% fetal calf serum, 4% glutamine, 1% penicillin-streptomycin-nystatin and 3% non essential amino acids (D122) and were kept in a humidified 37° C. incubator with 5% CO2. For the COX activity assays, cells were grown onto 24 multi-well plates.
Before the assay, cells were washed with serum-free medium; then the tested compounds were added to the medium and incubated for 30 minutes at 37° C. after which 30 μM arachidonic acid were added and incubated for additional 20 minutes. At the end of the incubation period, 10 μM Indomethacin were added to stop the reaction and medium was transferred to another 24 multi-well plate for measuring PGE2 production by radioimmunoassay (DuPont-NEN; Boston Mass.) according to manufacturer protocol. Protein determination was assayed on scraped cells using the Bradford method (1976) [Bradford M. M. 1976. Anal. Biochem. 72:248-254], with BSA as a standard and was used to normalize the amount of PGE2 production.
The anti-COX activity of NH25, NH29 and NH30 was examined in Mouse colon adenocarcinoma CT26 and mouse lewis lung carcinoma D122 cell lines. Cells were incubated with each of the tested compounds and the level of the COX-dependent synthesis of PGE2 was quantified using radioimmunoassay techniques.

DRG neurons = assay: Current-clamp recordings in cultured DRG neurons; format: cell-based, rat; conditions: for rheobase current to generate a single spike: 2 ms injection
Procedure: For dorsal root ganglion (DRG) neuronal cultures, ganglia were dissected from 2-5 day-old Sprague-Dawley rats killed by decapitation. DRGs were placed in Hank's balanced saline solution (HBSS) and prepared by enzymatic dissociation. Briefly, after 30 minutes incubation in 5 mg/ml dispase, 2 mg/ml collagenase type 1A and 0.1 mg/ml DNase (Invitrogen/Gibco, Carlsbad, Calif.) in Ca^2+ and Mg^2+-free HBSS, the ganglia were mechanically triturated with a fire-polished glass Pasteur pipette. The ganglia were then centrifuged for 5 minutes at 80×g and resuspended in DMEM supplemented with 2 mM L-glutamine, 16.5 mM NaHCO3, 6 g/l glucose, 5 ml penicillin/streptomycin and 10% fetal calf serum.
For electrophysiological recording, dissociated neurons were plated on 13 mm glass coverslips, previously coated with poly-D-lysine (1 mg/ml) and laminin (10 μg/ml) and used at 1-2 days in culture.
For current-clamp recordings in primary cultured neurons, the patch pipettes were filled with (in mM): 135 KCl, 1 K2ATP, 1 MgATP, 2 EGTA, 1.1 CaCl2, 5 glucose, 10 HEPES, adjusted with KOH at pH 7.4 (315 mOsm). The external solution contained (in mM): 150 NaCl, 2.5 KCl, 2 CaCl2, 2 MgCl2, 15 glucose, 10 HEPES, adjusted with NaOH at pH 7.4 (325 mOsm). Recordings were sampled at 5 kHz and filtered at 2 KHz via a 4-pole Bessel low pass filter. A liquid junction potential of about −15.6 mV was measured between the intracellular and saline solutions and corrected on-line.
For evoking spike discharges, 75-200 pA square depolarizing current pulses were injected into neurons for 400 ms. For rheobase current measurements, 100-1100 pA square depolarizing current pulses were injected into neurons for 2 ms.

SMILES | effect on amplitude and kinetics of sIPSCs ([1]; 25 μM) | reduction of charge transfer within the bursts of sEPSCs ([1]; 25 μM) | reduction of total charge transfer of sEPSCs ([1]; 25 μM) | effect on burst duration of sEPSCs ([1]; 25 μM, holding potential −70 mV) | effect on amplitude of miniature EPSCs and IPSCs [1] | inhibition at 25 µM ([1]; Rattus norvegicus, Hippocampal neuron, 25 μM, holding potential −70 mV, read-out: inhibition of sIPSCs frequency of spontaneous occurrence) | anti-COX activity (COX) | rheobase current to generate a single spike (DRG neurons; 25 μM NH25, control 400±41 pA, n=12) | number of evoked action potentials (DRG neurons; 25 μM NH25, 75-200 pA for 400 ms, control 10.4±0.8, n=8) | resting membrane potential (DRG neurons; 25 μM NH25, control −60.6±0.3 mV, n=13) | hyperpolarization of resting membrane potential (DRG neurons; 25 μM NH25, n=13) | rheobase current to generate a single spike (DRG neurons; 25 μM NH29, control 178±36 pA, n=8) | resting membrane potential (DRG neurons; 25 μM NH29, control −56.0±2.2 mV, n=7) | hyperpolarization of resting membrane potential (DRG neurons; 25 μM NH29, n=7)
O=C(Cc1cc([N+](=O)[O-])ccc1Nc1c(Cl)cccc1Cl)OCCO [NH25] | did not significantly affect | about 50% | about 50% | markedly reduced | did not affect | > 98% | exhibited anti-COX activity comparable to that of Diclofenac | 577±38 pA | 0.8±0.3 | −69.0±0.3 mV | −8.3±0.2 mV |  |  | 
O=C(Cc1cc([N+](=O)[O-])cc([N+](=O)[O-])c1Nc1c(Cl)cc([N+](=O)[O-])cc1Cl)NCCO [NH29] |  |  |  |  | did not affect |  | did not exhibit anti-COX activity |  |  |  |  | 300±55 pA | −65.0±3.4 mV | −9.0±1.9 mV
